In US20100129434A1, “COMPOSITIONS AND METHODS FOR THE TREATMENT OF MUCORMYCOSIS AND OTHER FUNGAL DISEASES” (priority 2006, published 2010):
Values after ≈ are worked out from the molar mass of the structure shown. Read-outs that look alike come from different tables or passages of the source.

Columns and labels:
[1] = test system: Mucorales; assay: Deferasirox susceptibilities of multiple clinical isolates of Mucorales (summary); format: cell-based
Experimental: Minimum inhibitory concentration (MIC) and minimum fungicidal concentration (MFC) were determined for deferasirox by the method of Espinel-Ingroff using R. oryzae spores starved for iron (Espinel-Ingroff, (2001), supra). Cidality was defined as a <4-fold difference between MIC and MFC.
We next determined the deferasirox susceptibilities of multiple clinical isolates of Mucorales (Table 3). The MIC9OS of deferasirox against Mucor, non-oryzae Rhizopus spp., and R. oryzae were 3.12 to 6.25 μg/ml. MFCs were similar to MICs, and deferasirox was cidal for 28/29 (97%) of isolates. Of note, slight growth was seen within the first twelve hours even at extremely high concentrations of deferasirox. […] Furthermore, the MICs and MFCs of deferasirox against these isolates were well below clinically achievable peak (˜38 μg/ml) and trough serum levels (˜17 μg/ml) of the drug at steady state when administered at the FDA-approved starting dose (20 mg/kg/d).

[2] = test system: R. oryzae; assay: Survival of diabetic ketoacidotic (DKA) mice infected with R. oryzae; format: in vivo, BALB/c male mice; conditions: DKA mice; for survival compared to controls: 2.2×10^4 spores R. oryzae 99-892, 1, 3, or 10 mg/kg bid for seven days; for 28 day survival: R. oryzae 99-892
Experimental: Briefly, for in vivo infection, BALB/c male mice (>20 g) were rendered diabetic with a single i.p. injection of 210 mg/kg streptozotocin in 0.2 ml citrate buffer 10 days prior to fungal challenge. […] Mice were infected through the tail vein with the appropriate inocula of R. oryzae. To confirm the inocula, dilutions were streaked on PDA plates and colonies were counted following a 24 h incubation period at room temperature. The primary efficacy endpoint was time to death. As a secondary endpoint, brain fungal burden (the primary target organ) was determined by homogenization by rolling a pipette on organs placed in Whirl-Pak bags (Nasco, Fort Atkinson, Wis.) containing 2 ml saline. The homogenate was serially diluted in 0.85% saline and then quantitatively cultured on PDA. Values were expressed as log 10 cfu g^−1 tissue. All procedures involving mice were approved by the institutional animal use and care committee, following the National Institutes of Health guidelines for animal housing and care.
Deferiprone (Apotex Research Inc.) was dissolved in iron-free water and administered intraperitoneally at 50, 100, or 200 mg/kg qd or qod (every other day). Treatment was begun 24 h post infection and continued for a total of 4 doses. Control groups were treated with the diluent, 5% dextrose water.
Deferiprone is known to form molecular complexes with ferric iron (^3+Fe) in a 1:3 ratio of iron to deferiprone. Based on the known molecular weights of ferric chloride (FeCl3, molecular weight 162.22 g/mol) and deferiprone (molecular weight 139 g/mol), a 60 mg/kg dose of FeCl3 was calculated to result in a significant excess of ^3+Fe vs. a 100 mg/kg dose of deferiprone given to an 18 g mouse: ^3+Fe moles=(0.060 g/kg*0.018 kg [mouse weight]/162.22 g/mol)=6.5×10^−6 mol vs. deferiprone moles=(0.1 g/kg*0.018 kg [mouse weight]/139 g/mol)=1.3×10^−5 mol Ratio=1:2 moles of ^3+Fe to deferiprone, which is more than that required to achieve a saturating 1:3 ratio.
Statistical analysis was performed using the nonparametric log rank test was used to determine differences in survival times of the mice. Differences in tissue fungal burdens in the infected organs were compared by the nonparametric Steel test for multiple comparisons. P values of <0.05 were considered significant.
Deferasirox (Novartis Pharmaceuticals, Basel, Switzerland) was suspended in 0.5% hydroxypropylcellulose (Klucel) and administered by oral gavage at 1, 3, or 10 mg/kg […] (qd) or every other day (qod). Treatment was begun 24 h post infection and continued for a total of 5 or 7 doses. Control groups were treated with the diluent, 5% dextrose water and 0.5% Klucel. In some experiments, a saturating dose of free iron was administered with deferasirox. Deferasirox is known to form molecular complexes with ferric iron (^3+Fe) in a 1:2 ratio of iron to deferasirox. Based on the known molecular weights of ferric chloride (FeCl3, molecular weight 162.22 g/mol) and deferasirox (molecular weight 373.4 g/mol), a 2.8 mg/kg dose of FeCl3 was calculated to result in a significant excess of ^3+Fe vs. a 10 mg/kg dose of deferasirox given to an 18 g mouse: ^3+Fe moles=(0.0028 g/kg*0.018 kg [mouse weight]/162.22 g/mol)=3×10^−7 mol vs. deferasirox moles=(0.01 g/kg*0.018 kg [mouse weight]/373.4 g/mol)=5×10^−7 mol Ratio=1:1.7 moles of ^3+Fe to deferasirox, which is more than that required to achieve a saturating 1:2 ratio.
The nonparametric log rank test was used to determine differences in survival times of the mice. Differences in tissue fungal burdens, splenic lymphocyte frequencies, and whole organ cytokines in the infected organs were compared by the Mann Whitney U test. P values of <0.05 were considered significant.

[3] = cited from earlier work
[4] = steady state; FDA-approved starting dose 20 mg/kg/d; cited from earlier work

O=C(O)c1ccc(-n2nc(-c3ccccc3O)nc2-c2ccccc2O)cc1 [Deferasirox, 4-[3,5-Bis(2-hydroxyphenyl)-1H-1,2,4-triazol-1-yl]-benzoic acid]
isolates for which deferasirox was cidal ([1]; 28/29 isolates): 97%
MIC ([1]; Rhizopus arrhizus, read-out: MIC90s against Mucor, non-oryzae Rhizopus spp., and R. oryzae): 3.12 to 6.25 µg/mL (≈ 8.36 to 16.7 µM)
dependence of cidality ([1]; slight growth within first twelve hours, fungi dead by 24 hours): time-dependent, rather than concentration-dependent
time to death compared to placebo ([2]; 1.3×10^3 spores R. oryzae 99-880, 10 mg/kg bid seven days): significantly improved time to death
survival compared to controls [2]: significantly improved survival
survival compared to controls ([2]; listed as Exjade): improves survival
survival ([2]; R. oryzae 99-880, Deferasirox 10 mg/kg po twice daily, LAmB 15 mg/kg iv once daily 4 doses, or both, placebo 0%): 25%
28 day survival ([2]; 1 mg/kg bid oral gavage 7 days, placebo 0%, p=0.03): 29%
28 day survival ([2]; 3 mg/kg bid oral gavage 7 days, placebo 0%, p=0.049): 40%
28 day survival ([2]; 10 mg/kg bid oral gavage 7 days, placebo 0%, p=0.01): 57%
protective effect on administration of free iron ([2]; deferasirox plus saturating ferric chloride): reversed
toxicity ([3]; iron-overloaded marmosets, doses up to 400 mg/kg/d): virtually no toxicity
toxicity ([3]; non-iron overloaded marmosets, 39 weeks, up to 40 mg/kg/d): no toxicities
tolerability ([3]; non-iron overloaded marmosets, subacute treatment (4 weeks), up to 65 mg/kg/d): well tolerated with no adverse effects
toxicity ([3]; non-iron-overloaded marmosets, chronic administration, 80 mg/kg): severe toxicity
clinically achievable peak serum level [4]: ~38 µg/mL
clinically achievable trough serum level [4]: ~17 µg/mL
